This series is described as follows: Example 3: safety (AEs, laboratory, ECG, vital signs, NASH scores). It counts as in vivo, human. The protocol:
• Semaglutide • Dose: 0.25, 0.25, 0.25, 0.25, 0.5, 0.5, 0.5, 0.5, 1.0 mg (weeks 9−16) once weekly • Mode of administration: Solution for injection
Safety endpoints included Columbia-Suicide Severity Rating Scale (C-SSRS) and various electrocardiograms (ECG) assessments. Safety was assessed based on adverse events (AEs), adverse event of special interest (AESIs), clinical laboratory assessments, vital signs, and physical examination. AESIs were pre-specified in the protocol as pancreatitis and hepatic injury.
Analyses of safety were descriptive.

Structures are written as SMILES.

For the compound `CC[C@H](C)[C@H](NC(=O)[C@H](Cc1ccccc1)NC(=O)[C@H](CCC(=O)O)NC(=O)[C@H](CCCCNC(=O)COCCOCCNC(=O)COCCOCCNC(=O)CC[C@H](NC(=O)CCCCCCCCCCCCCCCCC(=O)O)C(=O)O)NC(=O)[C@H](C)NC(=O)[C@H](C)NC(=O)[C@H](CCC(N)=O)NC(=O)CNC(=O)[C@H](CCC(=O)O)NC(=O)[C@H](CC(C)C)NC(=O)[C@H](Cc1ccc(O)cc1)NC(=O)[C@H](CO)NC(=O)[C@H](CO)NC(=O)[C@@H](NC(=O)[C@H](CC(=O)O)NC(=O)[C@H](CO)NC(=O)[C@@H](NC(=O)[C@H](Cc1ccccc1)NC(=O)[C@@H](NC(=O)CNC(=O)[C@H](CCC(=O)O)NC(=O)C(C)(C)NC(=O)[C@@H](N)Cc1cnc[nH]1)[C@@H](C)O)[C@@H](C)O)C(C)C)C(=O)N[C@@H](C)C(=O)N[C@@H](Cc1c[nH]c2ccccc12)C(=O)N[C@@H](CC(C)C)C(=O)N[C@H](C(=O)N[C@@H](CCCNC(=N)N)C(=O)NCC(=O)N[C@@H](CCCNC(=N)N)C(=O)NCC(=O)O)C(C)C` [semaglutide, reference compound], for the setting “Ex.3, whole trial”, the deaths entry is recorded as “no deaths”. Also, under “in vivo”, the “AEs leading to discontinuation of trial medication, number of patients” value is recorded as 2 N; the “AEs leading to discontinuation of trial medication, percentage of patients” value is listed as “(4.0) %”; the “AEs of special interest, number of patients” value was 0 N; the “Any AE, number of patients” value is 26 N. Further, where the note is “in vivo”, the “Any AE, percentage of patients” value is “(52.0) %”; the “Investigator defined drug-related AEs, number of patients” value is 19 N; the “Investigator defined drug-related AEs, percentage of patients” value is listed as “(38.0) %”; the “Serious AEs, number of patients” value is reported as 0 N. Moreover, where the note is “in vivo”, the “Severe AEs, number of patients” value is listed as 0 N; the cases of pancreatitis entry was “no cases of pancreatitis”; the “patients with SAEs” value is recorded as 0 patients; the “patients with SAEs assessed as drug-related by the investigator” value was determined as 0 patients. In addition, for the setting “in vivo”, the “proportion of patients with PCSA high glucose on treatment” value stood at 5.0%; the “severe AEs and serious AEs” value is reported as “no severe AEs or serious AEs”.

The record behind these values is US20250262279A1, “DOSE REGIMEN FOR LONG-ACTING GLP1/GLUCAGON RECEPTOR AGONISTS” (Boehringer Ingelheim International GmbH, priority 2021, published 2025).
